Experimental data as given in patent US20180251483A1, “THIOCYANATE SALTS FOR ANTI-INFLAMMATION” (National Jewish Health, priority 2015, published 2018).

Tests used:
[1] = Oxygen formation from H2O2 followed with an oxygen selective electrode (catalase to haloperoxidase conversion); assay type: biochemical
Experimental: FIG. 5 is a bar graph showing the inhibition of oxygen formation by 10150-Cl in the presence of hydrogen peroxide and thiocyanate. Bins (left to right); 25 uM Cmpd 10150; 50 uM Cmpd 10150. Legend: control (open); SCN 1 mM (closed).
It was examined whether SCN was being utilized as a substrate in a peroxidase reaction by looking at the inhibition of oxygen formation. If 10150-Cl was utilizing SCN along with H2O2, then no oxygen would be generated (see Eq 2).
To examine the rate of oxygen formation in the presence of 10150-Cl, H2O2 in the presence or absence of NaSCN, one utilized an oxygen selective electrode with a free radical analyzer (WPI). Changes in pA were converted to O2 using the difference of the O2 concentration in a saturated solution minus that of the solution made anaerobic by the addition of dithionite.
Experimental Conditions: Conversion of catalase activity to haloperoxidase activity of 10150-Cl with the addition of thiocyanate (SCN). Oxygen formation was followed with an oxygen selective electrode in a reaction mixture containing 10150 at either 25 or 50 μM and 1 mM H2O2 in the presence or absence of 1 mM SCN.

[2] = Catalase activity: H2O2 consumption followed with a hydrogen peroxide selective electrode; assay type: biochemical
Experimental: FIG. 4 is a line graph showing effects of 1 mM NaSCN on the consumption of H2O2 by 10150-Cl at a fixed concentration of 12.5 μM and various H2O2 concentrations. Legend: Cmpd 10150-Cl (circles); Cmpd 10150-Cl+SCN (1 mM) (triangles).
To test whether SCN was acting as a competing substrate in the catalase activity one examined the change in 10150-Cl catalase activity by following the disappearance of H2O2 over time with a H2O2 selective electrode in the presence or absence of 1 mM NaSCN.
Experimental Conditions: Effects of 1 mM NaSCN on the consumption of H2O2 by 10150-Cl was investigated at a fixed concentration of 12.5 μM and various H2O2 concentrations. H2O2 consumption was followed over time with a hydrogen peroxide selective electrode (HPO) using a free radical analyzer (WPI). Changes in pA were converted to H2O2 using a 5 point H2O2 standard curve. The data was fitted as a linear curve using Prizm software. The rate constant for 10150-Cl was 0.09±0.004 min^−1 and in the presence of 1 mM NaSCN was decreased to 0.02±0.004 min^−1.

rat brain homogenates = test: Iron/ascorbate-initiated lipid peroxidation of rat brain homogenates, TBARS assay; assay type: biochemical; conditions: comparison of the two salts
Experimental: Legend: Cmpd 10150-Cl (circles); Cmpd 10150-SCN (boxes).
The ability of the salts of the invention to inhibit lipid peroxidation was assessed as described by Ohkawa et al. (Anal. Biochem. 95:351 (1979)) and Yue et al. (J. Pharmacol. Exp. Ther. 263:92 (1992)). Iron and ascorbate can be used to initiate lipid peroxidation in tissue homogenates and the formation of thiobarbituric acid reactive species (TBARS) measured. Lipid peroxidation causes cell damage by radicals, which destroys lipids in cell membranes resulting in oxidative and inflammatory injury.
Both the chloride and thiocyanate salts of 10150 have similar lipid peroxide inhibition. Lipid peroxidation of rat brain homogenates was initiated with iron/ascorbate in the presence or absence of various concentrations of 10150-Cl or 10150-SCN. Lipid peroxidation was quantified using the TBARS assay with malondialdehyde standards. The data was normalized and curve fitted to determine the inhibitory concentrations that decreased lipid peroxidation by one-half (IC50).

[3] = stated as known; cited from earlier work
[4] = system: Human bronchial epithelial cells (HBE); test: Hypochlorite-induced injury of human bronchial epithelial cells, MTT viability assay; assay type: cell-based; conditions: 250 μM HOCl for 30 minutes, 10 μM compound, MTT 24 hours post exposure, compared to 10150-Cl or NaSCN
Experimental: Bins (left to right): PBS (phosphate buffered saline); 250 uM HOCl; 250 uM HOCl+10 uM 10150-Cl; 250 uM HOCL+10 uM 10150-SCN; 250 uM HOCL+10 uM NaSCN.
Human bronchial epithelial cells (HBE) were exposed to 250 μM of hypochlorite (HOCl) for 30 minutes in the presence or absence of 10 μM of 10150-Cl, 10150-SCN, or NaSCN and cell injury was assessed 24 hours post HOCl exposure using the MTT viability assay.

haloperoxidase activity ([1]; thiocyanate as substrate, generating HOSCN)	rate constant of H2O2 consumption in the presence of 1 mM NaSCN ([2]; 12.5 μM compound, various H2O2 concentrations, 1 mM NaSCN) [min⁻¹]	rate constant of H2O2 consumption ([2]; 12.5 μM compound, various H2O2 concentrations, absence of NaSCN) [min⁻¹]	Compound	oxygen formation on addition of SCN ([1]; 10150 at 25 or 50 μM, 1 mM H2O2, presence vs absence of 1 mM SCN)	IC50 of lipid peroxidation (TBARS formation) (rat brain homogenates)	catalase activity (dismutation of hydrogen peroxide into oxygen and water) [3]	catalase activity ([2]; comparison of the 10150-Cl and SCN salts)	protection against hypochlorite-mediated epithelial cell injury [4]
has haloperoxidase activity	0.02 ± 0.004	0.09 ± 0.004	CCN1C=CN(CC)C1=C1C2=NC(=C(c3n(CC)cc[n+]3CC)C3=NC(=C(c4n(CC)cc[n+]4CC)c4ccc([n-]4)C(c4n(CC)cc[n+]4CC)=C4C=CC1=N4)C=C3)C=C2.[Cl-].[Cl-].[Cl-].[Cl-].[Cl-].[Mn+3] [10150-Cl, [5,10,15,20 tetrakis(1,3-diethylmidazolium-2-yl)porphyrinato] manganese (III) pentachloride]	dramatically inhibited the formation of oxygen	not statistically different	known to possess catalase activity	–	–
–	–	–	[5,10,15,20 tetrakis(1,3-diethylimidazolium-2-yl)porphyrinato] manganese (III) pentathiocyanate [10150-SCN]	–	not statistically different	–	lower catalase activity than 10150-Cl salt	synergistic effects
